The target in assay [1] is T1, human coagulation factor Xa (Homo sapiens, UniProt P00742).
T1 construct: purchased Haemochrom Diag; HFXa
The assay is described as follows: Chromogenic assay for F Xa inhibition. It counts as biochemical. The note with it: chromogenic substrate S-2765 200 μM; Ki from IC50 by Cheng Prusoff formula, mean of duplicates. Here is the method: (§1) The ability of the compounds of the formulae I or Ia to inhibit thrombin or factor Xa or other enzymes like factor VIIa, plasmin, or trypsin can be assessed by determining the concentration of the compound of the formulae I or Ia that inhibits enzyme activity by 50%, i.e. the 1050 value, which was related to the inhibition constant Ki. Purified enzymes were used in chromogenic assays. The concentration of inhibitor that causes a 50% decrease in the rate of substrate hydrolysis was determined by linear regression after plotting the relative rates of hydrolysis (compared to the uninhibited control) versus the log of the concentration of the compound of formulae I or Ia. For calculating the inhibition constant Ki, the 1050 value was corrected for competition with substrate using the formula Ki=IC50/{1+(substrate concentration/Km)} wherein Km is the Michaelis-Menten constant (Chen and Prusoff, Biochem. Pharmacol. 22 (1973) 3099-3108). Measurement of F Xa and Thrombin Inhibition:
(§2) The claimed substances were tested for F Xa and thrombin inhibition with a chromogenic assay. 8 μl DMSO solution of the compound, 72 μL assay buffer (50 mM TRIS, 150 mM NaCl, 0.1% BSA, pH 7.8) and 20 μL enzyme (human coagulation factor Xa: Haemochrom Diag. Cat. Nr. HFXa, final concentration […]; human thrombin Behring: LOT.-No. 881001) were mixed and incubated for 15 minutes at room temperature in a 96 well microtiter plate. The enzyme reaction was started with 100 μL substrate (F Xa: S-2765, Chromogenix/Haemochrom Cat. Nr. 41249; thrombin: S-2366, Chromogenix/Haemochrom Cat. Nr. 41222 both in a final concentration of 200 μM). The time course of the reaction was monitored at 405 nm in a microtiter plate reader (SpectraMax plus 384; Molecular Devices Inc.) for 15 minutes.
(§3) The Ki was calculated from the mean of duplicates from a dilution series of the compound by the reader according to the Cheng Prusoff formula Ki=IC50/(1+(S/Km).
(§4) The results (inhibition constants Ki Thrombin and FXa in mikro M [μM]) for inhibition of thrombin and factor Xa are shown in Table 1.

The next assay concerns the target T2, human thrombin (Homo sapiens, UniProt P00734).
T2 construct: conversion of prothrombin to thrombin, the final enzyme in the coagulation cascade; purchased Behring LOT.-No. 881001 (a lot number; no catalogue number given)
The assay is described as follows: Chromogenic assay for thrombin inhibition. It counts as biochemical. The note with it: chromogenic substrate S-2366 200 μM; Ki from IC50 by Cheng Prusoff formula, mean of duplicates. The procedure: as §1, §2, §3, §4

A word on the Ki: it is the dissociation constant of the complex between target and ligand, obtained from inhibition or displacement. The low end stands for a stronger hold on the target, the high end for a looser hold on the target.

T1 sequence (P00742 235-488 limits assumed): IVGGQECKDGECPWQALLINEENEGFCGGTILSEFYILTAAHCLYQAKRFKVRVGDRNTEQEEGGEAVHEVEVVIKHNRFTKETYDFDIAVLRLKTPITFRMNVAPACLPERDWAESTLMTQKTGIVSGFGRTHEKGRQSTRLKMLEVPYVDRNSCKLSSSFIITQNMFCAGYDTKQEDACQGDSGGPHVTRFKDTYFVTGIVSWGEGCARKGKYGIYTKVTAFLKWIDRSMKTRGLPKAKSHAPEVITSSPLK
T1 sequence (P00742 41-179 limits assumed): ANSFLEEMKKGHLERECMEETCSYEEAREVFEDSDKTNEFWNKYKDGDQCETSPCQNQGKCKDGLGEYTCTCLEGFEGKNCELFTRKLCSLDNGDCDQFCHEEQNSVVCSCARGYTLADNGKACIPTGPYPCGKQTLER

Take `CCc1c(N2CCOCC2=O)cccc1S(=O)(=O)N[C@@H](Cc1cc(-c2ccc(Cl)s2)on1)C(=O)N1CCCCCC1` [Example 1, N-{(S)-2-Azepan-1-yl-1-[5-(5-chloro-thiophen-2-yl)-isoxazol-3-ylmethyl]-2-oxo-ethyl}-2-ethyl-3-(3-oxo-morpholin-4-yl)-benzenesulfonamide]: the inhibitory constant (Ki) in assay [1] came out at 13 nM; on human thrombin it was 0.35 nM.

Regarding `O=C([C@H](Cc1cc(-c2ccc(Cl)s2)on1)NS(=O)(=O)c1cccc(N2CCOCC2=O)c1Cl)N1CCCCCC1` [Example 2, N-{(S)-2-Azepan-1-yl-1-[5-(5-chloro-thiophen-2-yl)-isoxazol-3-ylmethyl]-2-oxo-ethyl}-2-chloro-3-(3-oxo-morpholin-4-yl)-benzenesulfonamide], the figures for the inhibition constant (Ki) (in assay [1]; on human thrombin) were 83 nM and 7 nM, respectively.

As to `COc1c(N2CCCCC2=O)cc(F)cc1S(=O)(=O)N[C@@H](Cc1cc(-c2ccc(Cl)s2)on1)C(=O)NCC1CC1` [Example 3, (S)-3-[5-(5-Chloro-thiophen-2-yl)-isoxazol-3-yl]-N-cyclopropylmethyl-2-[5-fluoro-2-methoxy-3-(2-oxo-piperidin-1-yl)-benzenesulfonylamino]-propionamide], the results for the inhibitory constant (Ki) (in assay [1]; on human thrombin) were 904 nM and 268 nM, respectively.

As to `COc1c(N2CCCCC2=O)cc(F)cc1S(=O)(=O)N[C@@H](Cc1cc(-c2ccc(Cl)s2)on1)C(=O)N1CCN(C2CC2)CC1` [Example 4, N—[(S)-1-[5-(5-Chloro-thiophen-2-yl)-isoxazol-3-ylmethyl]-2-(4-cyclopropyl-piperazin-1-yl)-2-oxo-ethyl]-5-fluoro-2-methoxy-3-(2-oxo-piperidin-1-yl)-benzenesulfonamide trifluoro acetate], the Ki in assay [1] came out at 6 nM; at human thrombin it was 29 nM.

With `O=C([C@H](Cc1cc(-c2ccc(Cl)s2)on1)NS(=O)(=O)c1cccc(N2CCCCC2=O)c1OC(F)F)N1CCN(C2CC2)CC1` [Example 5, N—[(S)-1-[5-(5-Chloro-thiophen-2-yl)-isoxazol-3-ylmethyl]-2-(4-cyclopropyl-piperazin-1-yl)-2-oxo-ethyl]-2-difluoromethoxy-3-(2-oxo-piperidin-1-yl)-benzenesulfonamide trifluoro acetate], the Ki in assay [1] turned out to be 33 nM; at human thrombin, 94 nM.

With `Cc1c(N2CCCC2=O)cccc1S(=O)(=O)N[C@@H](Cc1cc(-c2ccc(Cl)s2)on1)C(=O)N1CCN(CC(F)(F)F)CC1` [Example 6, N-{(S)-1-[5-(5-Chloro-thiophen-2-yl)-isoxazol-3-ylmethyl]-2-oxo-2-[4-(2,2,2-trifluoro-ethyl)-piperazin-1-yl]-ethyl}-2-methyl-3-(2-oxo-pyrrolidin-1-yl)-benzenesulfonamide trifluoro acetate], the inhibitory constant (Ki) in assay [1] stood at 0.72 nM; at human thrombin, 14 nM.

Regarding `Cc1c(N2CCCC2=O)cccc1S(=O)(=O)N[C@@H](Cc1cc(-c2ccc(Cl)s2)on1)C(=O)N1CCNC(C(F)(F)F)C1` (stereo partly drawn) [Example 7, N—[(S)-1-[5-(5-Chloro-thiophen-2-yl)-isoxazol-3-ylmethyl]-2-oxo-2-(3-trifluoromethyl-piperazin-1-yl)-ethyl]-2-methyl-3-(2-oxo-pyrrolidin-1-yl)-benzenesulfonamide trifluoro acetate], the inhibition constant Ki in assay [1] turned out to be 0.44 nM; at human thrombin, 0.79 nM.

Source of the values: patent US8835653B2, “Chlorothiophene-isoxazoles as inhibitors of coagulation factors Xa and thrombin” (Sanofi, priority 2008, dated 2014).
